Assay results: patent US20100160335A1, “PYRIDAZINONE DERIVATIVE AND PDE INHIBITOR CONTAINING THE SAME AS ACTIVE INGREDIENT” (KYORIN PHARMACEUTICAL CO., LTD., priority 2007, published 2010)

Assays:
PDE4Bcat = target: T1, PDE4Bcat (Homo sapiens, UniProt Q07343); test: Phosphodiesterase inhibitory activity, PDE4 ([3H]cAMP, recombinant enzyme); assay type: biochemical; conditions: 30° C., 20 minutes, read-out: IC50(μmol/L) PDE4
T1 construct: made in house; host or cells: Sf9 insect cells (baculovirus, Bac-to-Bac / Gateway)
T1 sequence (Q07343 330-659 limits assumed): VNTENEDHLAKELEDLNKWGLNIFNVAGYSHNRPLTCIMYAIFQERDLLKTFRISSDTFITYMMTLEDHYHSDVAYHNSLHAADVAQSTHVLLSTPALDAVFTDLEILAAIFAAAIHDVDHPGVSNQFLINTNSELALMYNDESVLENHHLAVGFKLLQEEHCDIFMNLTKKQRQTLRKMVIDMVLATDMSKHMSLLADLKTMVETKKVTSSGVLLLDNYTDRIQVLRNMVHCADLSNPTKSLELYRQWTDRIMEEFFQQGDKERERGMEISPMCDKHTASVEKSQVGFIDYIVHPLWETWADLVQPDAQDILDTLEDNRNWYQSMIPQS

[1] = target: T2, PDE3A catalytic domain (PDE3Acat) (Homo sapiens, UniProt Q14432); test: Phosphodiesterase inhibitory activity, PDE3 ([3H]cAMP, recombinant enzyme); assay type: biochemical; conditions: 30° C., 20 minutes, read-out: IC50(μmol/L) PDE3
T2 construct: made in house; host or cells: Sf9 insect cells (baculovirus, Bac-to-Bac / Gateway)
T2 sequence (Q14432 674-1093 limits assumed): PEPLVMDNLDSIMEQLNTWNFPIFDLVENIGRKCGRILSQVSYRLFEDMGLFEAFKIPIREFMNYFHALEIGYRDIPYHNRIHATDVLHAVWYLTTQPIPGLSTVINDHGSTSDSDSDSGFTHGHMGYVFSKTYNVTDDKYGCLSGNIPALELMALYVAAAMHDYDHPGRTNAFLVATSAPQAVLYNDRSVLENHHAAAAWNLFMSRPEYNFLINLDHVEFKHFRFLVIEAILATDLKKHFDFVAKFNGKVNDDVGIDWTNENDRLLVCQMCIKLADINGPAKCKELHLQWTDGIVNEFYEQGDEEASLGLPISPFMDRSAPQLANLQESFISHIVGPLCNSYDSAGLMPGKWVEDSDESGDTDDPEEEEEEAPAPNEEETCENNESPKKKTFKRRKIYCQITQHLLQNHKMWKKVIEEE

SMILES	IC50 (PDE4Bcat) [µmol/L]	IC50 [1] [µmol/L]
COc1ccc(-c2ccc(=O)n(CCCCOc3ccc(C4=NNC(=O)CC4C)cc3)n2)c2ccc(C)nc12 (stereo not drawn) [Example 268, 6-(8-Methoxy-2-methylquinolin-5-yl)-2-[4-[4-(4-methyl-6-oxo-1,4,5,6-tetrahydropyridazin-3-yl)phenoxy]butyl]-2H-pyridazin-3-one]	0.1 to 1	0.1 to 1
COc1ccc(-c2ccc(=O)n(CCCCOc3ccc(C4=NNC(=O)CC4C)cc3)n2)c2ccc(C(C)C)nc12 (stereo not drawn) [Example 270, 6-(8-Methoxy-2-isopropylquinolin-5-yl)-2-[4-[4-(4-methyl-6-oxo-1,4,5,6-tetrahydropyridazin-3-yl)phenoxy]butyl]-2H-pyridazin-3-one]	0.1 to 1	< 0.1
COc1ccc(-c2ccc(=O)n(CCCCOc3ccc(C4=NNC(=O)C4(C)C)c(F)c3F)n2)c2cc(C(F)(F)F)oc12 [Example 275, 2-[4-[2,3-Difluoro-4-(4,4-dimethyl-5-oxo-4,5-dihydro-1H-pyrazol-3-yl)phenoxy]butyl]-6-(7-methoxy-2-trifluoromethylbenzofuran-4-yl)-2H-pyridazin-3-one]	0.1 to 1	< 0.1
COc1ccc(-c2ccc(=O)n(CCCCOc3ccc(C4=NNC(=O)CC4C)c(F)c3F)n2)c2cc(C(F)(F)F)oc12 (stereo not drawn) [Example 276, 2-[4-[2,3-Difluoro-4-(4-methyl-6-oxo-1,4,5,6-tetrahydropyridazin-3-yl)phenoxy]butyl]-6-(7-methoxy-2-trifluoromethylbenzofuran-4-yl)-2H-pyridazin-3-one]	0.1 to 1	< 0.1
CCc1ccc2c(-c3ccc(=O)n(CCCCOc4ccc(C5=NNC(=O)CC5C)cc4)n3)ccc(OC)c2n1 (stereo not drawn) [Example 280, 6-(2-ethyl-8-Methoxyquinolin-5-yl)-2-[4-[4-(4-methyl-6-oxo-1,4,5,6-tetrahydropyridazin-3-yl)phenoxy]butyl]-2H-pyridazin-3-one]	0.1 to 1	< 0.1
CCc1ccc2c(-c3ccc(=O)n(CCCCOc4ccc(C5=NNC(=O)CC5)cc4)n3)ccc(OC)c2n1 [Example 281, 6-(2-Ethyl-8-methoxyquinolin-5-yl)-2-[4-[4-(6-oxo-1,4,5,6-tetrahydropyridazin-3-yl)phenoxy]butyl]-2H-pyridazin-3-one]	0.1 to 1	0.1 to 1
CCc1ccc2c(-c3ccc(=O)n(CCCCOc4ccc(C5=NNC(=O)C5(C)C)cc4)n3)ccc(OC)c2n1 [Example 282, 6-(2-Ethyl-8-methoxyquinolin-5-yl)-2-[4-[4-(4,4-dimethyl-5-oxo-4,5-dihydro-1H-pyrazol-3-yl)phenoxy]butyl]-2H-pyridazin-3-one]	0.1 to 1	≥ 10
CCc1ccc2c(-c3ccc(=O)n(CCCCOc4ccc(C5=NNC(=O)CC5)cc4F)n3)ccc(OC)c2n1 [Example 284, 6-(2-Ethyl-8-methoxyquinolin-5-yl)-2-[4-[2-fluoro-4-(6-oxo-1,4,5,6-tetrahydropyridazin-3-yl)phenoxy]butyl]-2H-pyridazin-3-one]	0.1 to 1	< 0.1
CCc1ccc2c(-c3ccc(=O)n(CCCCOc4ccc(C5=NNC(=O)C5(C)C)cc4F)n3)ccc(OC)c2n1 [Example 285, 6-(2-Ethyl-8-methoxyquinolin-5-yl)-2-[4-[2-fluoro-4-(4,4-dimethyl-5-oxo-4,5-dihydro-1H-pyrazol-3-yl)phenoxy]butyl]-2H-pyridazin-3-one]	1 to 10	1 to 10
CCc1ccc2c(-c3ccc(=O)n(CCCCOc4ccc(C5=NNC(=O)C5(C)C)cc4OC)n3)ccc(OC)c2n1 [Example 286, 6-(2-Ethyl-8-methoxyquinolin-5-yl)-2-[4-[2-methoxy-4-(4,4-dimethyl-5-oxo-4,5-dihydro-1H-pyrazol-3-yl)phenoxy]butyl]-2H-pyridazin-3-one]	1 to 10	≥ 10
COc1ccc(-c2ccc(=O)n(CCCCOc3ccc(C4=NNC(=O)C4(C)C)c(F)c3F)n2)c2nc(C(F)(F)F)nn12 [Example 306, 2-[4-[2,3-Difluoro-4-(4,4-dimethyl-5-oxo-4,5-dihydro-1H-pyrazol-3-yl)phenoxy]butyl]-6-(5-methoxy-2-trifluoromethyl-[1,2,4]triazolo[1,5-a]pyridin-8-yl)-2H-pyridazin-3-one]	1 to 10	1 to 10

Second part, the compound after the results:

IC50 (PDE4Bcat) [µmol/L]	IC50 [1] [µmol/L]	SMILES
< 0.1	1 to 10	CCc1ccc2c(C3=NN(CCCCOc4ccc(C5=NNC(=O)CC5C)cc4)C(=O)CC3C)ccc(OC)c2n1 (single isomer, unassigned) [Example 341, 6-(2-Ethyl-8-methoxyquinolin-5-yl)-5-methyl-2-[4-[4-(4-methyl-6-oxo-1,4,5,6-tetrahydropyridazin-3-yl)phenoxy]butyl]-4,5-dihydro-2H-pyridazin-3-one]
0.1 to 1	< 0.1	CCc1ccc2c(-c3ccc(=O)n(CCCCOc4ccc(C5=NNC(=O)CC5C)cc4F)n3)ccc(OC)c2n1 (single isomer, unassigned; (+)) [Example 328, (+)-6-(2-Ethyl-8-methoxyquinolin-5-yl)-2-[4-[2-fluoro-4-(4-methyl-6-oxo-1,4,5,6-tetrahydropyridazin-3-yl)phenoxy]butyl]-2H-pyridazin-3-one]
< 0.1	< 0.1	CCc1ccc2c(-c3ccc(=O)n(CCCCOc4ccc(C5=NNC(=O)CC5C)cc4F)n3)ccc(OC)c2n1 (single isomer, unassigned; (-)) [Example 329, (−)-6-(2-Ethyl-8-methoxyquinolin-5-yl)-2-[4-[2-fluoro-4-(4-methyl-6-oxo-1,4,5,6-tetrahydropyridazin-3-yl)phenoxy]butyl]-2H-pyridazin-3-one]
< 0.1	< 0.1	COc1ccc(-c2ccc(=O)n(CCCCOc3ccc(C4=NNC(=O)CC4)c(F)c3F)n2)c2cc(C(F)(F)F)oc12 [Example 274, 2-[4-[2,3-Difluoro-4-(6-oxo-1,4,5,6-tetrahydropyridazin-3-yl)phenoxy]butyl]-6-(7-methoxy-2-trifluoromethylbenzofuran-4-yl)-2H-pyridazin-3-one]
< 0.1	1 to 10	CCc1ccc2c(C3=NN(CCCCOc4ccc(C5=NNC(=O)C5(C)C)cc4F)C(=O)CC3C)ccc(OC)c2n1 (stereo not drawn) [Example 302, 6-(2-Ethyl-8-methoxyquinolin-5-yl)-5-methyl-2-[4-[2-fluoro-4-(4,4-dimethyl-5-oxo-4,5-dihydro-1H-pyrazol-3-yl)phenoxy]butyl]-4,5-dihydro-2H-pyridazin-3-one]
< 0.1	< 0.1	COc1ccc(-c2ccc(=O)n(CCCCOc3ccc(C4=NNC(=O)CC4C)c(F)c3F)n2)c2sc(C(F)(F)F)nc12 (stereo not drawn) [Example 307, 2-[4-[2,3-Difluoro-4-(4-methyl-6-oxo-1,4,5,6-tetrahydropyridazin-3-yl)phenoxy]butyl]-6-(4-methoxy-2-trifluoromethylbenzothiazol-7-yl)-2H-pyridazin-3-one]
< 0.1	< 0.1	COc1ccc(-c2ccc(=O)n(CCCCOc3ccc(C4=NNC(=O)CC4)c(F)c3F)n2)c2sc(C(F)(F)F)nc12 [Example 308, 2-[4-[2,3-Difluoro-4-(6-oxo-1,4,5,6-tetrahydropyridazin-3-yl)phenoxy]butyl]-6-(4-methoxy-2-trifluoromethylbenzothiazol-7-yl)-2H-pyridazin-3-one]
